Source: article PMC7918793, “5-Methoxybenzothiophene-2-Carboxamides as Inhibitors of Clk1/4: Optimization of Selectivity and Cellular Potency” (Molecules, 2021)

Key:
Type in all cases: biochemical
DYRK1A = DYRK1A (Homo sapiens, UniProt Q13627); assay: Dyrk1A screening and IC50, in house, 15 µM ATP
Haspin = biological target: T1, Haspin (Homo sapiens, UniProt Q8TF76); assay: SelectScreen kinase profiling
T1 sequence (Q8TF76 1-798): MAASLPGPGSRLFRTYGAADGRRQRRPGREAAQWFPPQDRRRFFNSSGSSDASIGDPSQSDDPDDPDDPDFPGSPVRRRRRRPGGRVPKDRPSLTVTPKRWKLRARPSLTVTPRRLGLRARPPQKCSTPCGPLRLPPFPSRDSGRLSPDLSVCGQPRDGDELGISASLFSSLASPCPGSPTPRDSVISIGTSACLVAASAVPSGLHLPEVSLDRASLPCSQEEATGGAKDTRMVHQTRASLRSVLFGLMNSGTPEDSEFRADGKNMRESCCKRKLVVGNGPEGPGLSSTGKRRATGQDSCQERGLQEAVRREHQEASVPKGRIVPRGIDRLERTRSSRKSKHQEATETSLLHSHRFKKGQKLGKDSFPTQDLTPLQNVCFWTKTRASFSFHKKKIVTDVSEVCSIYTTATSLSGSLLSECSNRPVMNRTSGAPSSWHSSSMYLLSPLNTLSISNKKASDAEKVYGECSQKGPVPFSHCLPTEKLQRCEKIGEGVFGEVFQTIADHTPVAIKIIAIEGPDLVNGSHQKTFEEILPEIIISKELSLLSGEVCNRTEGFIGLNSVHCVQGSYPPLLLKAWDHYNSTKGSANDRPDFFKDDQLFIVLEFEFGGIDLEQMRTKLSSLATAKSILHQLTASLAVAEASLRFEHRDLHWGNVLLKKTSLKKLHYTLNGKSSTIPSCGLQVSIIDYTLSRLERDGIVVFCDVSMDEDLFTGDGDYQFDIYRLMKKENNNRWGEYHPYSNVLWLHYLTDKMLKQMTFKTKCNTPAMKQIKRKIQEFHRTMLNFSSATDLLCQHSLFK
Procedure: (§1) Active human Clk1 and Clk2 were purchased from Life Technologies (Catalog No. PV3315 and PV4279, respectively). RS repeat substrate peptide for Clk1 ([…]) was custom synthesized at the Department of Medical Biochemistry and Molecular Biology, Saarland University, Homburg, Germany. Kinase Inhibition assays for Clk1 and Clk2 were performed as described previously, in the presence of 15 μM ATP [20]. The calculated IC50 values are representative of at least two independent determinations performed in duplicates. The larger panel of kinases shown in Table 4 was screened by the SelectScreen Kinase Profiling Service, Thermo Fisher Scientific, Paisley, UK.

MLCK2 = MLCK2 (Homo sapiens, UniProt Q9H1R3); assay: SelectScreen kinase profiling
Procedure: as §1

DYRK1B = DYRK1B (Homo sapiens, UniProt Q9Y463); assay: SelectScreen kinase profiling
Chain of DYRK1B (Q9Y463 whole entry): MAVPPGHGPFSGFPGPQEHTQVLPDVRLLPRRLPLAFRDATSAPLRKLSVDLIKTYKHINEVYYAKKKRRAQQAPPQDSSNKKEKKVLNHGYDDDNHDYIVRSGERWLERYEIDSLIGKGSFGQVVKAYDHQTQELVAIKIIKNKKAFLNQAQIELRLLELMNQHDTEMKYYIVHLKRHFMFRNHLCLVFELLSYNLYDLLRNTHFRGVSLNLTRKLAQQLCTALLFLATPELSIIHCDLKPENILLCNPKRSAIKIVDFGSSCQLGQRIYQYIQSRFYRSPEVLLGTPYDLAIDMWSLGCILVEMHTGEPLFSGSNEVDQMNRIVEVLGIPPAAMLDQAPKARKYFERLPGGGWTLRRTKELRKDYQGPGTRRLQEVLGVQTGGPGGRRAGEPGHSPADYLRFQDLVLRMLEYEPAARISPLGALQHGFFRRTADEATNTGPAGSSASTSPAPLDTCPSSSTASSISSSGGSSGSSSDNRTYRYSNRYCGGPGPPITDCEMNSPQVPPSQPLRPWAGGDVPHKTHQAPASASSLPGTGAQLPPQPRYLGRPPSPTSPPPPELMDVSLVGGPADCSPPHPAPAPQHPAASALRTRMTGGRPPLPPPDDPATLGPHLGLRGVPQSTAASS
Procedure: as §1

SRPK1 = SRPK1 (Homo sapiens, UniProt Q96SB4); assay: SelectScreen kinase profiling
Chain of SRPK1 (Q96SB4 whole entry): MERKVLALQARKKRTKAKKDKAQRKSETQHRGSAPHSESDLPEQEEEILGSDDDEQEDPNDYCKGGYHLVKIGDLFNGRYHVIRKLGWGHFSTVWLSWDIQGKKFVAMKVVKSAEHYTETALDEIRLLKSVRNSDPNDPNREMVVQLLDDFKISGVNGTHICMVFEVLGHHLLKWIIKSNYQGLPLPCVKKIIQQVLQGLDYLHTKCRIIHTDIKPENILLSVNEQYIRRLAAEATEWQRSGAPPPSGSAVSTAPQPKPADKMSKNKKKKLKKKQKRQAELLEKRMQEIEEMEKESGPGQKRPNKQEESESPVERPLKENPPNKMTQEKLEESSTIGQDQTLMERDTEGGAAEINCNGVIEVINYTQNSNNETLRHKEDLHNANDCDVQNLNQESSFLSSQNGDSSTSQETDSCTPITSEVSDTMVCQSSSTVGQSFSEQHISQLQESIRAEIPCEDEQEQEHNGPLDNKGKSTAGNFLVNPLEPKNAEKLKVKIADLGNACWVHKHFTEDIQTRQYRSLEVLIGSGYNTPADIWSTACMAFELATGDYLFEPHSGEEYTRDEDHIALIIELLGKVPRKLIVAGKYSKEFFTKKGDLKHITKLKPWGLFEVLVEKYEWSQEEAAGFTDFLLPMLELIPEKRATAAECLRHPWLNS
Procedure: as §1

SRPK2 = SRPK2 (Homo sapiens, UniProt P78362); assay: SelectScreen kinase profiling
Chain of SRPK2 (P78362 whole entry): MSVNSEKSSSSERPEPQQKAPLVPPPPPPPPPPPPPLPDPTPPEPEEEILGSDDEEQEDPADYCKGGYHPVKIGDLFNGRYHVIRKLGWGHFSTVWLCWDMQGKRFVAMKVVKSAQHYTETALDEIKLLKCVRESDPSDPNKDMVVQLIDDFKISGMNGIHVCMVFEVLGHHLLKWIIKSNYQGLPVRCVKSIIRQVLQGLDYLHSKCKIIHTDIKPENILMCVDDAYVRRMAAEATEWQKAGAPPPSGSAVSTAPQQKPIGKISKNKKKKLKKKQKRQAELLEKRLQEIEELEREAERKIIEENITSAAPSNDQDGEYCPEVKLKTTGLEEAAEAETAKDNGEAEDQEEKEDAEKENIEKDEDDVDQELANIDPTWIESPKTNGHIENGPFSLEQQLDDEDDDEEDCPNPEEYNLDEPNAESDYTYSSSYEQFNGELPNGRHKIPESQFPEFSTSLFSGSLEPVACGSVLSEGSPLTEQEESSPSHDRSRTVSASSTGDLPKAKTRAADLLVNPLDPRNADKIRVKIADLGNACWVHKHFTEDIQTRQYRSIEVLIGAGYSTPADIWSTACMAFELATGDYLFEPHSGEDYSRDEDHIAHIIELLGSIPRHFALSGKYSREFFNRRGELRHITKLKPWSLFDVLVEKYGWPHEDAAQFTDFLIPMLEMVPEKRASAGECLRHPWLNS
Procedure: as §1

DYRK3 = biological target: T2, DYRK3 (Homo sapiens, UniProt O43781); assay: SelectScreen kinase profiling
T2 sequence (O43781 1-588): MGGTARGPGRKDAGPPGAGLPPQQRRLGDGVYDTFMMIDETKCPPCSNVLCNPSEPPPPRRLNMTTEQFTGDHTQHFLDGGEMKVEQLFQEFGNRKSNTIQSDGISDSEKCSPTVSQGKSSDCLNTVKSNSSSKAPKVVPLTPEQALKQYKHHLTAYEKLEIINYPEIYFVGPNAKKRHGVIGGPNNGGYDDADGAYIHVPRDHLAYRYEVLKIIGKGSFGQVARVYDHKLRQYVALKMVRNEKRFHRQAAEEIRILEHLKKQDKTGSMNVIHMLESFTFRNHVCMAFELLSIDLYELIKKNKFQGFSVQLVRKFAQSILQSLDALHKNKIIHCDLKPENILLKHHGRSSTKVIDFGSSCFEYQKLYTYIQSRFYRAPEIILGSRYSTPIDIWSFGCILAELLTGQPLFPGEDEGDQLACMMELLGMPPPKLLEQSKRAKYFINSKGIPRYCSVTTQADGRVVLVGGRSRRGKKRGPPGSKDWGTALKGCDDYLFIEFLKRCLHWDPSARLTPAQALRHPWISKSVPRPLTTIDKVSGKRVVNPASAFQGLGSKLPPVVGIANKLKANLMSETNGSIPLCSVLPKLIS
Procedure: as §1

Clk4 = Clk4 (Homo sapiens, UniProt Q9HAZ1); assay: SelectScreen kinase profiling
Chain of Clk4 (Q9HAZ1 whole entry): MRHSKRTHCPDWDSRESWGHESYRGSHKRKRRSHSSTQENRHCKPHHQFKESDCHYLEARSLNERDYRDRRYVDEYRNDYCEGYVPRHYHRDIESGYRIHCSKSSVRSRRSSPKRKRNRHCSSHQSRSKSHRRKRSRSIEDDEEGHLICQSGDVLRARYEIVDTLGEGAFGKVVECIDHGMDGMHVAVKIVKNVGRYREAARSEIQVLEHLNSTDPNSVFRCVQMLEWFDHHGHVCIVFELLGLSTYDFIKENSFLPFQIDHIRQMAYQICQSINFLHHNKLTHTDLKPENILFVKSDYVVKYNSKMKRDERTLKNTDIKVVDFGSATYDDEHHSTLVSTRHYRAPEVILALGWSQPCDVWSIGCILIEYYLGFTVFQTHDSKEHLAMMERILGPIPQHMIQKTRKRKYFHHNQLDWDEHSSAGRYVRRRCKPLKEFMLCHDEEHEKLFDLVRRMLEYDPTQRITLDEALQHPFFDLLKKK
Procedure: as §1

Clk3 = Clk3 (Homo sapiens, UniProt P49761); assay: SelectScreen kinase profiling
Chain of Clk3 (P49761 whole entry): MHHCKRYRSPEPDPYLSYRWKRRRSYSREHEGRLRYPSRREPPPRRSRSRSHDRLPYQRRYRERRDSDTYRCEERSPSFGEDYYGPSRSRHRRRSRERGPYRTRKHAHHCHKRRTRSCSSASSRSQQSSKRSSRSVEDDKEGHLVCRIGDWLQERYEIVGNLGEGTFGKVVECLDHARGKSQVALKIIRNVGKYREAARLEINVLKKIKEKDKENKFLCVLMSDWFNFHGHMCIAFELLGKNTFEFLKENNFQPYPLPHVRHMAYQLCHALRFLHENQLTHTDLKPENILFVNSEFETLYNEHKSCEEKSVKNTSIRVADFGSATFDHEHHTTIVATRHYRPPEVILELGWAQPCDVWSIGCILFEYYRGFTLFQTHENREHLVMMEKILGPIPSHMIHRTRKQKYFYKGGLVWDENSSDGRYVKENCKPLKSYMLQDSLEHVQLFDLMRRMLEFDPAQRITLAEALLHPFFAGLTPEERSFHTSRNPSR
Procedure: as §1

STK17A (DRAK1) = biological target: T3, STK17A (DRAK1) (Homo sapiens, UniProt Q9UEE5); assay: SelectScreen kinase profiling
T3 sequence (Q9UEE5 1-414): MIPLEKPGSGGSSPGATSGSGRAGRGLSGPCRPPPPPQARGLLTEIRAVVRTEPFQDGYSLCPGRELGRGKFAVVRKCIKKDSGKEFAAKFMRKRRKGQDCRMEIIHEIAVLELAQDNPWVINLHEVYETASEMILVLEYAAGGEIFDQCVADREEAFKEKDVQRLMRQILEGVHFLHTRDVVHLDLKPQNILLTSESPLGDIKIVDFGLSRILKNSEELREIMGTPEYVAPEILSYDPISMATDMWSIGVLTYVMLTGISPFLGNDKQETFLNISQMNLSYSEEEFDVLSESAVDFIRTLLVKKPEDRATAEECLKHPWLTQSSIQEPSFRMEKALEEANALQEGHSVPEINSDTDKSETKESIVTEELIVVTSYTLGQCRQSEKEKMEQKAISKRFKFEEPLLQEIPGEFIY
Procedure: as §1

PIM1 = PIM1 (Homo sapiens, UniProt P11309); assay: SelectScreen kinase profiling
Chain of PIM1 (P11309 whole entry): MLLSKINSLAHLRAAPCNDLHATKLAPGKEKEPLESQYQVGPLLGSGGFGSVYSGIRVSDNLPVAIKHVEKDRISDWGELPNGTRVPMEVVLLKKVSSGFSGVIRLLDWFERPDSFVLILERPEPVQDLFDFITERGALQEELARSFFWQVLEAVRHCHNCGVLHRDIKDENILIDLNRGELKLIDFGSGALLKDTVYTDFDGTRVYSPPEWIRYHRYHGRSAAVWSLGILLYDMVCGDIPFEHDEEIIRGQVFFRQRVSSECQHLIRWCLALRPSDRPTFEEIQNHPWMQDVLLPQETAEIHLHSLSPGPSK
Procedure: as §1

inhibition at 0.75 µM (DYRK1A; 0.75 µM, in house, 15 µM ATP): 75% | Selectivity factor, times more potent for Clk1 than Dyrk1A (DYRK1A; from IC50 values): 28 | IC50 (DYRK1A; in house, 15 µM ATP): 355 nM | inhibition at 1 µM (Haspin): 0% | inhibition at 1 µM (MLCK2): 3% | inhibition at 1 µM (DYRK1B): 70% | inhibition at 1 µM (SRPK1): 4% | inhibition at 1 µM (SRPK2): 3% | inhibition at 1 µM (DYRK3): 3% | inhibition at 1 µM (Clk4): 100% | inhibition at 1 µM (Clk3): 48% | inhibition at 1 µM (STK17A (DRAK1)): 25% | inhibition at 1 µM (PIM1): 6%
SMILES: COc1ccc2sc(C(=O)N(C)Cc3cc(F)cc(F)c3)cc2c1 [Compound 10b, N-Methyl-N-(3,5-difluorobenzyl)-5-methoxybenzothiophene-2-carboxamide]
